# Data published in PMC4769034 (Journal of medicinal chemistry, 2015).
# Entries after “also recorded” stand apart in the source; their conditions may differ.
# Columns and labels:
# [1] = molecular target: T1, EPAC2 (Mus musculus, UniProt Q9EQZ6); test: 8-NBD-cAMP competition assay; conditions: for fold increase in potency compared to nonsubstituted analogue 8: vs compound 8; for EPAC2 binding activity in words: 8-NBD-cAMP competition; for fold more potent than parent compound 1 / fold loss of EPAC2 binding affinity / inhibitory activity in comparison with 1: vs compound 1
# T1 sequence (Q9EQZ6 1-993 isoform Q9EQZ6-3): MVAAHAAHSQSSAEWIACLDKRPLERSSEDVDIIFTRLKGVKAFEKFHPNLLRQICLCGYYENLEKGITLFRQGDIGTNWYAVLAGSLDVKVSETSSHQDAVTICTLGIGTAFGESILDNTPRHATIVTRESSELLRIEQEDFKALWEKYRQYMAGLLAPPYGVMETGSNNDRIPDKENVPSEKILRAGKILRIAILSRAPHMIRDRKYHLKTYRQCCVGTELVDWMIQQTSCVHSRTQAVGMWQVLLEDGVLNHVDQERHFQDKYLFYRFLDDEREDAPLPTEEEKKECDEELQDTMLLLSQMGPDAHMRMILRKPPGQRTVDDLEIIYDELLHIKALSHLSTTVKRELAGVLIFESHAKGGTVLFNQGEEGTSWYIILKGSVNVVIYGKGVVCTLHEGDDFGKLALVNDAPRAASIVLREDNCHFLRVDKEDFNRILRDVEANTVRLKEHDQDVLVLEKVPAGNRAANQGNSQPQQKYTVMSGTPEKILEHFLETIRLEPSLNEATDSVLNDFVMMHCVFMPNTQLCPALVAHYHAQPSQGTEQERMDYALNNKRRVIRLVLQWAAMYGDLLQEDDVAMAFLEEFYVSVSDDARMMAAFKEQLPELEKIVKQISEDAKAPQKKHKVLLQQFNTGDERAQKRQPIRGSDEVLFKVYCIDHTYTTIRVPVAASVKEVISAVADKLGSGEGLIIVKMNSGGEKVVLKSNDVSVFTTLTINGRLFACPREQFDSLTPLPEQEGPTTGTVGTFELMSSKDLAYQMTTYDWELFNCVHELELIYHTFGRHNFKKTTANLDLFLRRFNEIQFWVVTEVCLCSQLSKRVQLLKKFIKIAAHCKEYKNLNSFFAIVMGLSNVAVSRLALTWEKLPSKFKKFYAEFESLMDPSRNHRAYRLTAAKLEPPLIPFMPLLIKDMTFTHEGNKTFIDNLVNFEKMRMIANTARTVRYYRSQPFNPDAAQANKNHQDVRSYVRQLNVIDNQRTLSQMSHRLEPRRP
# [2] = Solubility in water by HPLC analysis; conditions: water
# [3] = molecular target: T2, EPAC1 (Homo sapiens, UniProt O95398); test: In vitro EPAC1 GEF activity assay; type: biochemical
# T2 sequence (O95398 1-881 isoform O95398-3): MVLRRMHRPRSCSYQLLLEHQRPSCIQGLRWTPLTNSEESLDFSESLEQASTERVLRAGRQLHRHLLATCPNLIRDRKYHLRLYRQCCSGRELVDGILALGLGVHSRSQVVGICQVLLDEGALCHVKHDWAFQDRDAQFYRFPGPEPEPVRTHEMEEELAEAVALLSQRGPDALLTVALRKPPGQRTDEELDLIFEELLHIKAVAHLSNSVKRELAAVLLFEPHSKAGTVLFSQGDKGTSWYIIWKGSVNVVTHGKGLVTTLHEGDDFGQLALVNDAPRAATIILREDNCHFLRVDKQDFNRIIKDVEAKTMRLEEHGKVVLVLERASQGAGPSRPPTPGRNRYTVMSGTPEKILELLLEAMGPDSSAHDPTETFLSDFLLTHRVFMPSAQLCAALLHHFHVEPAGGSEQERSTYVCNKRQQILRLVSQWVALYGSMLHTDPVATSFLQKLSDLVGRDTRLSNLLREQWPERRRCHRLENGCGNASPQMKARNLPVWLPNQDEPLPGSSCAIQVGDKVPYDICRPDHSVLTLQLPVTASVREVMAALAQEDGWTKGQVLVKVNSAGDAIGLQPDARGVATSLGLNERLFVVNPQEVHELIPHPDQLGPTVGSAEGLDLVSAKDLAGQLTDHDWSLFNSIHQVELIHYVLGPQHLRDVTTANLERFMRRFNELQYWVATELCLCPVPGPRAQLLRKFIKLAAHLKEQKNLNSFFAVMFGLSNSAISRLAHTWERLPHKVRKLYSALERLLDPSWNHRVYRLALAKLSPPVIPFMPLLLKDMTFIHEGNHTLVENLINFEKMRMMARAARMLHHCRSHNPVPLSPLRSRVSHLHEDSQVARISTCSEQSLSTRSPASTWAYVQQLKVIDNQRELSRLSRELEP
smiles,measurement,setting,value
"CC(C)(C)c1cc(C(=O)/C(C#N)=N/Nc2cccc(Br)c2)no1 [Compound 11, 2-(5-tert-Butylisoxazol-3-yl)-N′-(3-bromophenyl)-2-oxoacetohydrazonoyl Cyanide]",fold increase in potency compared to nonsubstituted analogue 8,[1],3–4 fold
"N#C/C(=N\Nc1cc(Cl)c(Cl)c(Cl)c1)C(=O)c1cc(-c2ccccc2)on1 [Compound 48, N′-(3,4,5-Trichlorophenyl)-2-oxo-2-(5-phenylisoxazol-3-yl)-acetohydrazonoyl Cyanide]",EPAC2 binding activity in words,[1],totally inactive
"CC(C)(C)c1cc(NC(=O)Nc2cccc(Cl)c2)no1 [Compound 54, 1-(5-tert-Butylisoxazol-3-yl)-3-(3-chlorophenyl)urea]",EPAC2 binding activity in words,[1],entire loss of potency; also recorded: no significant activity
"CC(C)(C)c1cc(C(=O)/C(C#N)=N/Nc2cc(F)c(F)c(F)c2)no1 [Compound 36, 2-(5-tert-Butylisoxazol-3-yl)-2-oxo-N′-(3,4,5-trifluorophenyl)acetohydrazonoyl Cyanide]",solubility at 24 h,[2],75.7 ± 7.1 µg/mL
"CC(C)(C)c1cc(-c2n[nH]c(N)c2/N=N/c2cccc(Cl)c2)no1 [Compound 57, 3-(5-tert-Butylisoxazol-3-yl)-4-((3-chlorophenyl)diazenyl)-1H-pyrazol-5-amine]",EPAC2 binding activity in words,[1],entire loss of potency; also recorded: no significant activity
"CC(C)(C)c1cc(C(=O)/C(C#N)=N/Nc2cccc(F)c2)no1 [Compound 12, 2-(5-tert-Butylisoxazol-3-yl)-N′-(3-fluorophenyl)-2-oxoacetohydrazonoyl Cyanide]",fold increase in potency compared to nonsubstituted analogue 8,[1],3–4 fold
"CC(=O)c1cccc(N/N=C(\C#N)C(=O)c2cc(C(C)(C)C)on2)c1 [Compound 17, N′-(3-Acetylphenyl)-2-(5-tert-butylisoxazol-3-yl)-2-oxoacetohydrazonoyl Cyanide]",EPAC2 binding activity in words,[1],dramatic loss of activity
"CC(C)(C)c1cc(C(=O)/C(C#N)=N/Nc2ccc(F)c(Cl)c2)no1 [Compound 31, 2-(5-tert-Butylisoxazol-3-yl)-N′-(3-chloro-4-fluorophenyl)-2-oxoacetohydrazonoyl Cyanide]",solubility at 24 h,[2],82.6 ± 3.6 µg/mL
"CC(C)(C)c1cc(C(=O)/C(C#N)=N/Nc2cc(Cl)cc(Cl)c2)no1 [Compound 22, 2-(5-tert-Butylisoxazol-3-yl)-N′-(3,5-dichlorophenyl)-2-oxoacetohydrazonoyl Cyanide]",IC50,[3],< 5 µM
same,fold more potent than parent compound 1,[1],about 5 fold
"CC(C)(C)c1cc(C(=O)N/N=C/c2cccc(Cl)c2)no1 [Compound 56, (E)-5-(tert-Butyl)-N′-(3-chlorobenzylidene)isoxazole-3-carbohydrazide]",EPAC2 binding activity in words,[1],entire loss of potency; also recorded: no significant activity
"N#C/C(=N\Nc1cccc(Cl)c1)C(=O)c1cc(-c2ccccc2)on1 [Compound 41, N′-(3-Chlorophenyl)-2-oxo-2-(5-phenylisoxazol-3-yl)-acetohydrazonoyl Cyanide]",EPAC2 binding activity in words,[1],totally inactive
"CC(C)(C)c1cc(C(=O)/C(C#N)=N/Nc2cccc(C(F)(F)F)c2)no1 [Compound 13, 2-(5-tert-Butylisoxazol-3-yl)-N′-(3-trifluoromethylphenyl)-2-oxoacetohydrazonoyl Cyanide]",fold increase in potency compared to nonsubstituted analogue 8,[1],approximately 5 fold
"CC(C)(C)c1cc(NC(=O)C(C#N)=NNc2cccc(Cl)c2)no1 [Compound 51, N-(5-tert-Butyl-isoxazol-3-yl)-2-[(3-chlorophenyl)-hydrazono]-2-cyanoacetamide]",EPAC2 binding activity in words,[1],completely inactive
"CC(C)(C)c1cc(C(=O)/C(C#N)=N/Nc2ccc(Cl)cc2)no1 [Compound 10, 2-(5-tert-Butylisoxazol-3-yl)-N′-(4-chlorophenyl)-2-oxoacetohydrazonoyl Cyanide]",fold loss of EPAC2 binding affinity / inhibitory activity in comparison with 1,[1],3 fold
"CC(C)(C)c1cc(C(=O)/C(C#N)=N/Nc2ccc(Cl)c(Cl)c2)no1 [Compound 23, 2-(5-tert-Butylisoxazol-3-yl)-N′-(3,4-dichlorophenyl)-2-oxoacetohydrazonoyl Cyanide]",fold more potent than parent compound 1,[1],~3 fold
"CC(C)(C)c1cc(C(=O)Nc2cccc(Cl)c2)no1 [Compound 55, 5-tert-Butyl-N-(3-chlorophenyl)isoxazole-3-carboxamide]",EPAC2 binding activity in words,[1],entire loss of potency; also recorded: no significant activity
"COc1cccc(N/N=C(\C#N)C(=O)c2cc(C(C)(C)C)on2)c1 [Compound 18, 2-(5-tert-Butylisoxazol-3-yl)-N′-(3-methoxyphenyl)-2-oxoacetohydrazonoyl Cyanide]",EPAC2 binding activity in words,[1],significant loss of activity
"CC(C)(C)c1cc(C(=O)/C(C#N)=N/Nc2ccccc2Cl)no1 [Compound 9, 2-(5-tert-Butylisoxazol-3-yl)-N′-(2-chlorophenyl)-2-oxoacetohydrazonoyl Cyanide]",fold loss of EPAC2 binding affinity / inhibitory activity in comparison with 1,[1],3 fold
"CC(C)(C)c1cc(C(=O)/C(C#N)=N/Nc2cccc([N+](=O)[O-])c2)no1 [Compound 14, 2-(5-tert-Butylisoxazol-3-yl)-N′-(3-nitrophenyl)-2-oxoacetohydrazonoyl Cyanide]",fold increase in potency compared to nonsubstituted analogue 8,[1],about 2 fold
"CC(C)(C)c1cc(C(=O)/C(C#N)=N/Nc2cccc(CO)c2)no1 [Compound 19, 2-(5-tert-Butylisoxazol-3-yl)-N′-(3-(hydroxymethyl)phenyl)-2-oxoacetohydrazonoyl Cyanide]",EPAC2 binding activity in words,[1],significant loss of activity
"Cc1cc(NC(=O)C(C#N)=NNc2cccc(Cl)c2)no1 [Compound 52, 2-[(3-Chlorophenyl)-hydrazono]-2-cyano-N-(5-methyl-isoxazol-3-yl)acetamide]",EPAC2 binding activity in words,[1],completely inactive
"N#C/C(=N\Nc1cc(Cl)c(Cl)c(Cl)c1)C(=O)c1cc(C2CCCCC2)on1 [Compound 47, 2-(5-Cyclohexylisoxazol-3-yl)-2-oxo-N′-(3,4,5-trichlorophenyl)acetohydrazonoyl Cyanide]",solubility at 24 h,[2],10.1 ± 0.79 µg/mL
"CC(C)(C)c1cc(C(=O)/C(C#N)=N/Nc2cc(Cl)c(Cl)c(Cl)c2)no1 [Compound 35, 2-(5-tert-Butylisoxazol-3-yl)-2-oxo-N′-(3,4,5-trichlorophenyl)acetohydrazonoyl Cyanide]",solubility at 24 h,[2],12.7 ± 1 µg/mL
"CC(C)(C)c1cc(NC(=O)c2cccc(Cl)c2)no1 [Compound 53, N-(5-(tert-Butyl)isoxazol-3-yl)-3-chlorobenzamide]",EPAC2 binding activity in words,[1],entire loss of potency; also recorded: no significant activity
"Cc1cccc(N/N=C(\C#N)C(=O)c2cc(C(C)(C)C)on2)c1 [Compound 20, 2-(5-tert-Butylisoxazol-3-yl)-2-oxo-N′-m-tolylacetohydrazonoyl Cyanide]",fold increase in potency compared to nonsubstituted analogue 8,[1],about 2 fold
"CC(C)(C)c1cc(C(=O)/C(C#N)=N/Nc2ccccc2)no1 [Compound 8, 2-(5-tert-Butylisoxazol-3-yl)-N′-phenyl-2-oxoacetohydrazonoyl Cyanide]",fold loss of EPAC2 binding affinity / inhibitory activity in comparison with 1,[1],~7 fold
